In patent US20230151003A1, “COMPOUNDS AND METHODS OF USE” (Exelixis, Inc., priority 2020, published 2023):

Tests used:
Human AXL = molecular target: T1, Human AXL (Homo sapiens, UniProt P30530); experiment: Human AXL kinase assay (HTRF KinEase); type: biochemical; settings: Table 2 Biological Activities, ATP at Km (1.0 μM)
T1 construct: Human AXL (residues 464-885; CarnaBio, 1 ng/ well); purchased CarnaBio
T1 sequence (P30530 464-885 isoform P30530-2): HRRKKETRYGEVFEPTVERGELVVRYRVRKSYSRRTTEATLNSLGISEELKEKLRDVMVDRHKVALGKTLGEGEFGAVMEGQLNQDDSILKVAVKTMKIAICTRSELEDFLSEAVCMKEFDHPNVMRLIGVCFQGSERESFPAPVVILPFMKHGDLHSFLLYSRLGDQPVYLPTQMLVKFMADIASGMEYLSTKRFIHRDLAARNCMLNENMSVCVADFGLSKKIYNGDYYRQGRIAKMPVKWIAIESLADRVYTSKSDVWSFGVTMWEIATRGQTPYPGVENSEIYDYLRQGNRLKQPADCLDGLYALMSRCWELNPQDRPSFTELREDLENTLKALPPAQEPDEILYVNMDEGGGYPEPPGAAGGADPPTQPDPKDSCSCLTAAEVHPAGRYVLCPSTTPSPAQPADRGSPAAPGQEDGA
Protocol: (§1) Kinase activity and compound inhibition were investigated using the HTRF® KinEase assay (Cisbio Cat #62TKOPEB) per manufacturer's instructions. In short, compounds were delivered in 300 nL volumes at 10 different concentrations in DMSO (3% final) to empty 384-well assay plates (Corning cat #3824). A mixture of enzyme, 1 μM biotynlated peptide substrate, and buffer in 10 μL volume was added. The assay was started upon the addition of ATP (at Km). The 10 μL reaction was incubated at room temperature. The reaction was stopped upon the addition of detection buffer containing streptavidin-XL665 (5 μL) and TK antibody-Eu3+ (5 μL). After a 60 min incubation at room temperature, the fluorescence at 665 nm and 620 nm was read on an Envision microplate reader (Perkin Elmer). Kinase activity normalized to DMSO (100% activity) and reference compound at 1 μM and (0% activity) was calculated using the fluorescence ratio […]. IC50 values were calculated by nonlinear regression analysis using a 4-parameter logistic curve fit in ActivityBase XE (IDBS).
Human AXL (residues 464-885; CarnaBio, 1 ng/ well) was incubated with enzymatic buffer (Cisbio) supplemented with 5 mM MgCl2, 1 mM DTT, and Supplemental Enzymatic Buffer (SEB; Cisbio). The mixture was added to the pre-plated compounds. The reaction was initiated upon addition of ATP at Km (1.0 μM). The reaction was incubated at room temperature for 50 min and stopped upon the addition of SA-XL665 and TK-antibody both diluted in EDTA-containing kinase detection buffer (Cisbio). The kinase activity was calculated as stated above and the IC50 values were reported.

KDR = KDR (Homo sapiens, UniProt P35968); experiment: Human KDR kinase assay (HTRF KinEase); type: biochemical; design: Human KDR (residues 790-1356; CarnaBio, 0.1 ng/ well); purchased CarnaBio; settings: Table 2 Biological Activities, ATP at Km (4.0 μM)
Protocol: as §1
Human KDR (residues 790-1356; CarnaBio, 0.1 ng/ well) was incubated with enzymatic buffer (Cisbio) supplemented with 5 mM MgCl2, 1 mM MnCl2, and 1 mM DTT. The mixture was added to the pre-plated compounds. The reaction was initiated upon addition of ATP at Km (4.0 μM). The reaction was incubated at room temperature for 40 min and stopped upon the addition of SA-XL665 and TK-antibody both diluted in EDTA-containing kinase detection buffer (Cisbio). The kinase activity was calculated as stated above and the IC50 values were reported.

KDR, sequence (P35968 790-1356): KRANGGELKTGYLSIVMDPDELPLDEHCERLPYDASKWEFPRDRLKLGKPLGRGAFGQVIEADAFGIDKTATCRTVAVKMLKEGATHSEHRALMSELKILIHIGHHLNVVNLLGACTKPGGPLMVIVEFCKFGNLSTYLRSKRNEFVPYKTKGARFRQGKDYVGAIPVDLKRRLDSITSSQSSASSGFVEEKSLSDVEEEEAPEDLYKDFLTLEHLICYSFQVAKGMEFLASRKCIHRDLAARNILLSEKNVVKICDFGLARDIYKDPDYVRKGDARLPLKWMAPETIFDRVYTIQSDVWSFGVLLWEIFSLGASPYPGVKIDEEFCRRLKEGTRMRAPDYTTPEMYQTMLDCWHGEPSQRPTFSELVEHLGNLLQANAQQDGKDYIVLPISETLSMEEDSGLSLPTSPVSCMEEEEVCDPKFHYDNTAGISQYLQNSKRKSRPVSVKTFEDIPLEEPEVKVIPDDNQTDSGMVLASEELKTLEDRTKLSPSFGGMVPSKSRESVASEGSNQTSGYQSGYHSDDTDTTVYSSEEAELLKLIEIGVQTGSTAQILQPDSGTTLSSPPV

SMILES: COc1ccc2nccc(Oc3ccc(NC(=O)c4ccc(C)n(-c5ccc(F)cn5)c4=O)cc3F)c2n1 [Compound 47, N-[3-Fluoro-4-[(6-methoxy-1,5-naphthyridin-4-yl)oxy]phenyl]-1-(5-fluoropyridin-2-yl)-6-methyl-2-oxopyridine-3-carboxamide]
- IC50 (Human AXL): ≤ 100 nM
- IC50 (KDR): 300 to 1000 nM

SMILES: COc1cc2nccc(Oc3ccc(NC(=O)c4ccc(C)n(-c5ccc(F)cn5)c4=O)cc3)c2nc1OC [Compound 44, N-[4-[(6,7-Dimethoxy-1,5-naphthyridin-4-yl)oxy]phenyl]-1-(5-fluoropyridin-2-yl)-6-methyl-2-oxopyridine-3-carboxamide]
- IC50 (Human AXL): ≤ 100 nM
- IC50 (KDR): ≤ 100 nM

SMILES: COc1cnc2c(Oc3ccc(NC(=O)c4c(C)ncc(-c5ccccn5)c4O)cc3F)ccnc2c1 [Compound 70, N-[3-Fluoro-4-[(7-methoxy-1,5-naphthyridin-4-yl)oxy]phenyl]-4-hydroxy-2-methyl-5-pyridin-2-ylpyridine-3-carboxamide]
- IC50 (Human AXL): ≤ 100 nM
- IC50 (KDR): ≤ 100 nM

SMILES: COc1cnc2c(Oc3ccc(NC(=O)c4ccc(C)n(-c5ccc(F)cn5)c4=O)cc3F)ccnc2c1 [Compound 45, N-[3-Fluoro-4-[(7-methoxy-1,5-naphthyridin-4-yl)oxy]phenyl]-1-(5-fluoropyridin-2-yl)-6-methyl-2-oxopyridine-3-carboxamide]
- IC50 (Human AXL): ≤ 100 nM
- IC50 (KDR): 100 to 300 nM

SMILES: COc1cc2nccc(Oc3ccc(NC(=O)c4ccc(C)n(-c5ccc(F)cn5)c4=O)cc3F)c2nc1OC [Compound 43, N-[4-[(6,7-Dimethoxy-1,5-naphthyridin-4-yl)oxy]-3-fluorophenyl]-1-(5-fluoropyridin-2-yl)-6-methyl-2-oxopyridine-3-carboxamide]
- IC50 (Human AXL): ≤ 100 nM
- IC50 (KDR): ≤ 100 nM

SMILES: COc1cc2nccc(Oc3ccc(NC(=O)c4cn(C)c(C)c(-c5ccc(F)cn5)c4=O)cc3)c2nc1OC [Compound 86, N-[4-[(6,7-Dimethoxy-1,5-naphthyridin-4-yl)oxy]phenyl]-5-(5-fluoropyridin-2-yl)-1,6-dimethyl-4-oxopyridine-3-carboxamide]
- IC50 (Human AXL): ≤ 100 nM
- IC50 (KDR): 300 to 1000 nM

SMILES: COc1cc2nccc(Oc3ccc(NC(=O)c4cccn(-c5ccc(F)cn5)c4=O)cc3F)c2nc1OC [Compound 42, N-[4-[(6,7-Dimethoxy-1,5-naphthyridin-4-yl)oxy]-3-fluorophenyl]-1-(5-fluoropyridin-2-yl)-2-oxopyridine-3-carboxamide]
- IC50 (Human AXL): ≤ 100 nM
- IC50 (KDR): ≤ 100 nM
